The values below come from ChEMBL document CHEMBL1143535 (Bioorg Med Chem Lett, 2005).

“And” between values parts separate entries of the source, which are not always exact repeats. Identical values can stand only once.

In the assay the target is T1, Muscarinic acetylcholine receptor M2 (Rattus norvegicus, UniProt P10980).
T1 sequence (P10980 whole entry): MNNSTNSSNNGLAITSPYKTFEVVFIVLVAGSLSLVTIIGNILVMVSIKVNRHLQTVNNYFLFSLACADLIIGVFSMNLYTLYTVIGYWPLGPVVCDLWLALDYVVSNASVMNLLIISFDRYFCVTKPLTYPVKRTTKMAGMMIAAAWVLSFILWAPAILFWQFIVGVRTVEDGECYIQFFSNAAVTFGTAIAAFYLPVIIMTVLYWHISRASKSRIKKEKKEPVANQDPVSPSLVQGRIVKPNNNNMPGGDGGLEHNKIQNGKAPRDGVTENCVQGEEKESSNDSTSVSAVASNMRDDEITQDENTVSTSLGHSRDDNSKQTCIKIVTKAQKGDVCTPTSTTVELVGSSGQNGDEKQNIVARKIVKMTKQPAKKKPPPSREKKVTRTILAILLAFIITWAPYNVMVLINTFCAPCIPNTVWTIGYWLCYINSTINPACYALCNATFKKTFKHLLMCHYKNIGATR
Put plainly: Affinity for rat Muscarinic acetylcholine receptor M2.
In the case of `O=C(NCC#CCN1CC2CC2C1)C(O)(c1ccc(F)cc1)c1ccc(F)cc1` (stereo not given), the affinity corresponds to a Ki of 736 nM. The figure for `Cc1ccc(O)c(C(CCN2C[C@@]3(C)C[C@@]3(C)C2)c2ccccc2)c1` (stereo not given in full) is more than 1000 nM. As for `Cc1ccc(O)c(C(CCN2C[C@H]3C[C@@]3(C)C2)c2ccccc2)c1` (stereo not given in full), the affinity, expressed as Ki, was 221 nM.

Compound `Cc1ccc(OCc2ccccc2)c(C(CCN2C[C@H]3C[C@H]3C2C)c2ccccc2)c1` (stereo not given in full) came in with a Ki of more than 10000 nM. With `Cc1ccc(O)c(C(CCN2C[C@H]3C[C@H]3C2C)c2ccccc2)c1` (stereo not given in full), the Ki was 34 nM and 42 nM. Compound `Cc1ccc(O)c(C(CCN2CC3C[C@@H]3C2)c2ccccc2)c1` (single isomer, unassigned) gave a Ki of 105 nM. As to `O=C(NCC#CCN1CC2CC2C1)C(O)(c1ccccc1)C1CCCCC1` (stereo not given), the Ki came to 3580 nM. Turning to `O=C(NCC#CCN1CC2CC2C1)C(O)(c1ccccc1)c1ccccc1` (stereo not given), the Ki came to 639 nM. For `Cc1ccc(OCc2ccccc2)c(C(CCN2C[C@@]3(C)C[C@@]3(C)C2)c2ccccc2)c1` (stereo not given in full), the Ki was more than 10000 nM.

Regarding `Cc1ccc(OCc2ccccc2)c(C(CCN2C[C@H]3C[C@H]3C2)c2ccccc2)c1` (stereo not given in full), the Ki was more than 10000 nM.

For orientation: Ki means a dissociation constant, usually derived from enzyme kinetics or from competition with a known ligand.
